# According to US8304447B2, “2-acylaminopropoanol-type glucosylceramide synthase inhibitors” (Genzyme Corporation, priority 2007, dated 2012):
# Test system: GM3
# Experiment: GM3 Elisa assay
# Assay type: cell-based
# Conditions: 48 h, Table 1; B16-FO cells, 2 days incubation; read-out: IC50_uM_Mean
# Procedure: B16-FO cells from ATCC (American Tissue Culture Collection) were grown in DMEM media (ATCC) with 10% Fetal Bovine Serum (Hyclone) and Pen/Step/Glutamine (Biowhittaker). 4000 cells per well were plated on collagen coated plates (BD) and allowed to attach for 6 hours in an incubator (37 degrees, 5% CO2). After 6 hours the compounds and controls were added to the wells, the plates mixed and returned to the incubator for 2 days. Day of assay the cells were fixed for 20 minutes with 1% formaldehyde and then washed with Tris Buffered Saline (TBS) 3 times, 150 μl of TBS was left in the wells and 50 μl of goat serum (Invitrogen) was added, the plates mixed and incubated for 1 hour at room temperature. The plates were flicked and the cells incubated with the monoclonal Antibody to GM3 (NeuAc) (Cosmo) for 45 minutes as room temperature. The plates were then washed 3 times with TBS, leaving 150 μl of TBS in the wells and Peroxidase AffinPure F (ab′) 2 frag Gt Anti-mouse IgM, μ Chain Specific (Jackson Immuno Research) was added in 50 μl, the plates mixed and incubated for 45 minutes at room temperature. The plates were washed 3 times with TBS, flicked and blotted and 100 μl of Quantablu (Pierce) was added to the wells and incubated for 1 hour then read on a Fluorometer at Ex 325 and Em 420. The data was then analyzed using standard programs.
row,SMILES,IC50 [nM]
1,"O=C(N[C@H](CN1CCCC1)[C@H](O)c1ccc2c(c1)OCCO2)c1cc2ccccc2s1 [Compound 5, N-((1R,2R)-1-(2,3-dihydrobenzo[β][1,4]dioxin-6-yl)-1-hydroxy-3-(pyrrolidin-1-yl)propan-2-yl)benzo[b]thiophene-2-carboxamide]",100 to 1000
2,"O=C(NCc1ccccc1)N[C@H](CN1CCCC1)[C@H](O)c1ccc2c(c1)OCCO2 [Compound 6, 1-benzyl-3-((1R,2R)-1-(2,3-dihydrobenzo[β][1,4]dioxin-6-yl)-1-hydroxy-3-(pyrrolidin-1-yl)propan-2-yl)urea]",100 to 1000
3,"CCCCCCCCCCCCNC(=O)N[C@H](CN1CCCC1)[C@H](O)c1ccc2c(c1)OCCO2 [Compound 7, 1-((1R,2R)-1-(2,3-dihydrobenzo[β][1,4]dioxin-6-yl)-1-hydroxy-3-(pyrrolidin-1-yl)propan-2-yl)-3-dodecylurea]",≤ 100
4,"C[C@H](NC(=O)N[C@H](CN1CCCC1)[C@H](O)c1ccc2c(c1)OCCO2)c1ccccc1 [Compound 10, 1-((1R,2R)-1-(2,3-dihydrobenzo[β][1,4]dioxin-6-yl)-1-hydroxy-3-(pyrrolidin-1-yl)propan-2-yl)-3-((S)-1-phenylethyl)urea]",100 to 1000
5,"O=C(CSc1ccccc1)N[C@H](CN1CCCC1)[C@H](O)c1ccc2c(c1)OCCO2 [Compound 11, N-((1R,2R)-1-(2,3-dihydrobenzo[β][1,4]dioxin-6-yl)-1-hydroxy-3-(pyrrolidin-1-yl)propan-2-yl)-2-(phenylthio)acetamide]",≤ 100
6,"O=C(N[C@H](CN1CCCC1)[C@H](O)c1ccc2c(c1)OCCO2)c1ccc(-c2ccccc2)cc1 [Compound 12, N-((1R,2R)-1-(2,3-dihydrobenzo[β][1,4]dioxin-6-yl)-1-hydroxy-3-(pyrrolidin-1-yl)propan-2-yl)biphenyl-4-carboxamide]",100 to 1000
7,"O=C(NCc1ccc(F)cc1)N[C@H](CN1CCCC1)[C@H](O)c1ccc2c(c1)OCCO2 [Compound 17, 1-((1R,2R)-1-(2,3-dihydrobenzo[β][1,4]dioxin-6-yl)-1-hydroxy-3-(pyrrolidin-1-yl)propan-2-yl)-3-(4-fluorobenzyl)urea]",≤ 100
8,"O=C(N[C@H](CN1CCCC1)[C@H](O)c1ccc2c(c1)OCCO2)c1ccc2sccc2c1 [Compound 19, N-((1R,2R)-1-(2,3-dihydrobenzo[β][1,4]dioxin-6-yl)-1-hydroxy-3-(pyrrolidin-1-yl)propan-2-yl)benzo[b]thiophene-5-carboxamide]",100 to 1000
9,"O=C(Cc1ccc(-c2ccccc2)cc1)N[C@H](CN1CCCC1)[C@H](O)c1ccc2c(c1)OCCO2 [Compound 23, 2-(biphenyl-4-yl)-N-((R,2R)-1-(2,3-dihydrobenzo[β][1,4]dioxin-6-yl)-1-hydroxy-3-(pyrrolidin-1-yl)propan-2-yl)acetamide]",≤ 100
10,"O=C(Cc1ccc(Oc2ccccc2)cc1)N[C@H](CN1CCCC1)[C@H](O)c1ccc2c(c1)OCCO2 [Compound 24, N-((1R,2R)-1-(2,3-dihydrobenzo[β][1,4]dioxin-6-yl)-1-hydroxy-3-(pyrrolidin-1-yl)propan-2-yl)-2-(4-phenoxyphenyl)acetamide]",100 to 1000
11,"O=C(N[C@H](CN1CCCC1)[C@H](O)c1ccc2c(c1)OCCO2)[C@@H](O)Cc1ccccc1 [Compound 25, (S)—N-((1R,2R)-1-(2,3-dihydrobenzo[β][1,4]dioxin-6-yl)-1-hydroxy-3-(pyrrolidin-1-yl)propan-2-yl)-2-hydroxy-3-phenylpropanamide]",100 to 1000
12,"O=C(CCOc1ccccc1)N[C@H](CN1CCCC1)[C@H](O)c1ccc2c(c1)OCCO2 [Compound 27, N-((1R,2R)-1-(2,3-dihydrobenzo[β][1,4]dioxin-6-yl)-1-hydroxy-3-(pyrrolidin-1-yl)propan-2-yl)-3-phenoxypropanamide]",≤ 100
13,"O=C(N[C@H](CN1CCCC1)[C@H](O)c1ccc2c(c1)OCCO2)C(=O)c1ccccc1 [Compound 31, N-((1R,2R)-1-(2,3-dihydrobenzoall [1,4]dioxin-6-yl)-1-hydroxy-3-(pyrrolidin-1-yl)propan-2-yl)-2-oxo-2-phenylacetamide]",100 to 1000
14,"O=C(CCSc1ccccc1)N[C@H](CN1CCCC1)[C@H](O)c1ccc2c(c1)OCCO2 [Compound 32, N-((1R,2R)-1-(2,3-dihydrobenzo[β][1,4]dioxin-6-yl)-1-hydroxy-3-(pyrrolidin-1-yl)propan-2-yl)-3-(phenylthio)propanamide]",≤ 100
15,"Cc1ccccc1CC(=O)N[C@H](CN1CCCC1)[C@H](O)c1ccc2c(c1)OCCO2 [Compound 35, N-((1R,2R)-1-(2,3-dihydrobenzo [β][1,4]dioxin-6-yl)-1-hydroxy-3-(pyrrolidin-1-yl)propan-2-yl)-2-o-tolylacetamide]",1000 to 3000

# The remaining lines, values ahead:
row,IC50 [nM],SMILES
1,100 to 1000,"Cc1cccc(CC(=O)N[C@H](CN2CCCC2)[C@H](O)c2ccc3c(c2)OCCO3)c1 [Compound 36, N-((1R,2R)-1-(2,3-dihydrobenzo[b][1,4]dioxin-6-yl)-1-hydroxy-3-(pyrrolidin-1-yl)propan-2-yl)-2-m-tolylacetamide]"
2,≤ 100,"O=C(CSCc1ccccc1)N[C@H](CN1CCCC1)[C@H](O)c1ccc2c(c1)OCCO2 [Compound 39, 2-(benzylthio)-N-((1R,2R)-1-(2,3-dihydrobenzo[β][1,4]dioxin-6-yl)-1-hydroxy-3-(pyrrolidin-1-yl)propan-2-yl)acetamide]"
3,≤ 100,"O=C(NCc1ccc(Br)cc1)N[C@H](CN1CCCC1)[C@H](O)c1ccc2c(c1)OCCO2 [Compound 40, 1-(4-bromobenzyl)-3-((1R,2R)-1-(2,3-dihydrobenzo[β][1,4]dioxin-6-yl)-1-hydroxy-3-(pyrrolidin-1-yl)propan-2-yl)urea]"
4,≤ 100,"COc1ccc(CNC(=O)N[C@H](CN2CCCC2)[C@H](O)c2ccc3c(c2)OCCO3)cc1 [Compound 41, 1-((1R,2R)-1-(2,3-dihydrobenzo[β][1,4]dioxin-6-yl)-1-hydroxy-3-(pyrrolidin-1-yl)propan-2-yl)-3-(4-methoxybenzyl)urea]"
5,≤ 100,"Cc1ccc(CNC(=O)N[C@H](CN2CCCC2)[C@H](O)c2ccc3c(c2)OCCO3)cc1 [Compound 42, 1-((1R,2R)-1-(2,3-dihydrobenzo[β][1,4]dioxin-6-yl)-1-hydroxy-3-(pyrrolidin-1-yl)propan-2-yl)-3-(4-methylbenzyl)urea]"
6,≤ 100,"O=C(NCc1ccc(Cl)cc1)N[C@H](CN1CCCC1)[C@H](O)c1ccc2c(c1)OCCO2 [Compound 43, 1-(4-chlorobenzyl)-3-((1R,2R)-1-(2,3-dihydrobenzo[β][1,4]dioxin-6-yl)-1-hydroxy-3-(pyrrolidin-1-yl)propan-2-yl)urea]"
7,100 to 1000,"O=C(Cc1ccc(-c2cccnc2)cc1)N[C@H](CN1CCCC1)[C@H](O)c1ccc2c(c1)OCCO2 [Compound 47, N-((1R,2R)-1-(2,3-dihydrobenzo[β][1,4]dioxin-6-yl)-1-hydroxy-3-(pyrrolidin-1-yl)propan-2-yl)-2-(4-(pyridin-3-yl)phenyl)acetamide]"
8,≤ 100,"O=C(Cc1ccc(-c2ccc(Cl)cc2)cc1)N[C@H](CN1CCCC1)[C@H](O)c1ccc2c(c1)OCCO2 [Compound 48, 2-(4′-chlorobiphenyl-4-yl)-N-((1R, 2R)-1-(2,3-dihydrobenzo[β][1,4]dioxin-6-yl)-1-hydroxy-3-(pyrrolidin-1-yl)propan-2-yl)acetamide]"
9,100 to 1000,"O=C(Cc1cccc(C(F)(F)F)c1)N[C@H](CN1CCCC1)[C@H](O)c1ccc2c(c1)OCCO2 [Compound 51, N-((1R,2R)-1-(2,3-dihydrobenzo[β][1,4]dioxin-6-yl)-1-hydroxy-3-(pyrrolidin-1-yl)propan-2-yl)-2-(3-(trifluoromethyl)phenyl)acetamide]"
10,1000 to 3000,"O=C(Cc1cccc(F)c1)N[C@H](CN1CCCC1)[C@H](O)c1ccc2c(c1)OCCO2 [Compound 53, N-((1R,2R)-1-(2,3-dihydrobenzo[β][1,4]dioxin-6-yl)-1-hydroxy-3-(pyrrolidin-1-yl)propan-2-yl)-2-(3-fluorophenyl)acetamide]"
11,≤ 100,"COc1cccc(OCCC(=O)N[C@H](CN2CCCC2)[C@H](O)c2ccc3c(c2)OCCO3)c1 [Compound 54, N-((1R,2R)-1-(2,3-dihydrobenzo[β][1,4]dioxin-6-yl)-1-hydroxy-3-(pyrrolidin-1-yl)propan-2-yl)-3-(3-methoxyphenoxy)propanamide]"
12,≤ 100,"O=C(CCOc1cc(Cl)ccc1Cl)N[C@H](CN1CCCC1)[C@H](O)c1ccc2c(c1)OCCO2 [Compound 55, 3-(2,5-dichlorophenoxy)-N-((1R,2R)-1-(2,3-dihydrobenzo[β][1,4]dioxin-6-yl)-1-hydroxy-3-(pyrrolidin-1-yl)propan-2-yl)propanamide]"
13,≤ 100,"O=C(CCOc1ccc(Cl)cc1)N[C@H](CN1CCCC1)[C@H](O)c1ccc2c(c1)OCCO2 [Compound 57, 3-(4-chlorophenoxy)-N-((1R,2R)-1-(2,3-dihydrobenzo[β][1,4]dioxin-6-yl)-1-hydroxy-3-(pyrrolidin-1-yl)propan-2-yl)propanamide]"
14,100 to 1000,"O=C(CCOc1ccc(F)cc1)N[C@H](CN1CCCC1)[C@H](O)c1ccc2c(c1)OCCO2 [Compound 58, N-((1R,2R)-1-(2,3-dihydrobenzo[β][1,4]dioxin-6-yl)-1-hydroxy-3-(pyrrolidin-1-yl)propan-2-yl)-3-(4-fluorophenoxy)propanamide]"
